Assay results published in US10647679B2, “N-methyl-D-aspartate receptor (NMDAR) potentiators, pharmaceutical compositions, and uses related thereto” (Emory University, priority 2015, dated 2020).
Read-outs that look alike come from different tables or passages of the source.

Key:
Format in all cases: cell-based
[1] = molecular target: T1, recombinant rat GluN1/GluN2B (Rattus norvegicus, UniProt P35439+Q00960); assay: Two-electrode voltage-clamp (TEVC) recordings in Xenopus laevis oocytes, GluN1/GluN2B
T1 construct: expressed in transfected cells; host or cells: Xenopus laevis oocytes (Ecocyte) injected with in vitro transcribed cRNA
T1 sequence (Q00960 27-1482, other chains not shown): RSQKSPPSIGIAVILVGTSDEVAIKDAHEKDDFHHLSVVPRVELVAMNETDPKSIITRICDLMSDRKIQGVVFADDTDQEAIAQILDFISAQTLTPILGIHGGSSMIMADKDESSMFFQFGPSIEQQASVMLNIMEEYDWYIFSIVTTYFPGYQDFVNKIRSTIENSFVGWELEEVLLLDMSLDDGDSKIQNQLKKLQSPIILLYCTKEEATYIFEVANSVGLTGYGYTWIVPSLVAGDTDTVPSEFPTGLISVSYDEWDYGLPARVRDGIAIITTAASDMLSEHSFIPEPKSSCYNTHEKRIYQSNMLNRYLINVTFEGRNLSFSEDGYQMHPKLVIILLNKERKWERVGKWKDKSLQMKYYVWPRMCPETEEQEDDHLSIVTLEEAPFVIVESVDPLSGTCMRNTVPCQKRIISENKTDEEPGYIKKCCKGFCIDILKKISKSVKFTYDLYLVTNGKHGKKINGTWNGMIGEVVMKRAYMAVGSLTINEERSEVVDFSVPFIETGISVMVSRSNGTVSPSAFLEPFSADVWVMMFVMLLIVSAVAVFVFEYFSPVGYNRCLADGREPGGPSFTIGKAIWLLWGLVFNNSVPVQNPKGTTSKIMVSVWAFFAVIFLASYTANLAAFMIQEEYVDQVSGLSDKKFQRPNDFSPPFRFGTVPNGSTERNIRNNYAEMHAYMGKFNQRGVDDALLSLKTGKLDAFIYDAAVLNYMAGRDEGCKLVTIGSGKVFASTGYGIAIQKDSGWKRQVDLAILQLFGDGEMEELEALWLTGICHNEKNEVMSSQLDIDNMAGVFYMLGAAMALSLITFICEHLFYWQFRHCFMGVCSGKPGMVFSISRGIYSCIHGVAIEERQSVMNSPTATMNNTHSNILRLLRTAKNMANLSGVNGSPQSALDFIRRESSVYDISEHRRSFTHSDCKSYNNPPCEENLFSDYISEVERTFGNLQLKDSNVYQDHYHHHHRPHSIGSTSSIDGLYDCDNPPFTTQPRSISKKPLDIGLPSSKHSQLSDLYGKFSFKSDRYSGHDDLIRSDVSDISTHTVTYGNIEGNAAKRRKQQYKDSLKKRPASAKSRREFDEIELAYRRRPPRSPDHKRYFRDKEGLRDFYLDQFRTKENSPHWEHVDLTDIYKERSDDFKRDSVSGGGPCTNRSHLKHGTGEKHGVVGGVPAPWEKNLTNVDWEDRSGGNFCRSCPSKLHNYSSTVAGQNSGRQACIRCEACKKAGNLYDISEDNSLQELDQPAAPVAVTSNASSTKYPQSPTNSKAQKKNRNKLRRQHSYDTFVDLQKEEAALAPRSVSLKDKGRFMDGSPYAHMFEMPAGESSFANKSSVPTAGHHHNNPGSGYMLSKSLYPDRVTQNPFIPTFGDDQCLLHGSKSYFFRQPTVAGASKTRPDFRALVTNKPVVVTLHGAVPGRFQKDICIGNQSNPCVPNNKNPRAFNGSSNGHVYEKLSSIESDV
Method: (§1) Data are from between 3-26 oocytes from 2-5 frogs for each compound and receptor tested.
(§2) Two-electrode voltage-clamp recordings were performed in Xenopus laevis oocytes (Ecocyte) expressing recombinant rat GluN1/GluN2A, GluN1/GluN2B, GluN1/GluN2C, GluN1/GluN2D. cRNA was transcribed in vitro (Ambion), diluted with nuclease free water, and injected at a ratio of 1:2 GluN1:GluN2 (5-10 ng total cRNA). The oocytes were kept in Barth's solution comprised of (in mM) 88 NaCl, 5 Tris-HCl, 2.4 NaHCO3, 1 KCl, 0.84 MgSO4, 0.41 CaCl2, and 0.33 Ca(NO3)2 at pH 7.4 at 15-17° C. for two to five days before experiments. Oocytes were placed into a perfusion chamber and continually washed with recording solution containing (in mM) 90 NaCl, 1.0 KCl, 0.5 BaCl2, 0.005 EDTA, and 10 HEPES at pH 7.4 (23° C.). Voltage clamp recordings were conducted at a holding potential of −40 mV. All compounds were made as 20 mM stock solutions in DMSO and dissolved to reach the final concentration in recording solution. Final DMSO content was 0.05-0.5% (vol/vol). Some oocytes expressing GluN1/GluN2A were pretreated with […] BAPTA-AM for 10 minutes or injected with […] of 2 mM K-BAPTA to prevent gradual run-up of the current response.

[2] = molecular target: T2, recombinant rat GluN1/GluN2B (Rattus norvegicus, UniProt Q00960); assay: as above; settings: for I30 μM/Icontrol (mean ± SEM, %) GluN2B: 30 μM compound, Tables 5-7
T2 construct: expressed in transfected cells; host or cells: Xenopus laevis oocytes (Ecocyte) injected with in vitro transcribed cRNA
Method: as §1, §2

[3] = molecular target: T3, recombinant rat GluN1/GluN2C (Rattus norvegicus, UniProt Q00961); assay: Two-electrode voltage-clamp (TEVC) recordings in Xenopus laevis oocytes, GluN1/GluN2C; settings: for I30 μM/Icontrol (mean ± SEM, %) GluN2C: 30 μM compound, Tables 5-7
T3 construct: expressed in transfected cells; host or cells: Xenopus laevis oocytes (Ecocyte) injected with in vitro transcribed cRNA
T3 sequence (Q00961 20-1237, other chains not shown): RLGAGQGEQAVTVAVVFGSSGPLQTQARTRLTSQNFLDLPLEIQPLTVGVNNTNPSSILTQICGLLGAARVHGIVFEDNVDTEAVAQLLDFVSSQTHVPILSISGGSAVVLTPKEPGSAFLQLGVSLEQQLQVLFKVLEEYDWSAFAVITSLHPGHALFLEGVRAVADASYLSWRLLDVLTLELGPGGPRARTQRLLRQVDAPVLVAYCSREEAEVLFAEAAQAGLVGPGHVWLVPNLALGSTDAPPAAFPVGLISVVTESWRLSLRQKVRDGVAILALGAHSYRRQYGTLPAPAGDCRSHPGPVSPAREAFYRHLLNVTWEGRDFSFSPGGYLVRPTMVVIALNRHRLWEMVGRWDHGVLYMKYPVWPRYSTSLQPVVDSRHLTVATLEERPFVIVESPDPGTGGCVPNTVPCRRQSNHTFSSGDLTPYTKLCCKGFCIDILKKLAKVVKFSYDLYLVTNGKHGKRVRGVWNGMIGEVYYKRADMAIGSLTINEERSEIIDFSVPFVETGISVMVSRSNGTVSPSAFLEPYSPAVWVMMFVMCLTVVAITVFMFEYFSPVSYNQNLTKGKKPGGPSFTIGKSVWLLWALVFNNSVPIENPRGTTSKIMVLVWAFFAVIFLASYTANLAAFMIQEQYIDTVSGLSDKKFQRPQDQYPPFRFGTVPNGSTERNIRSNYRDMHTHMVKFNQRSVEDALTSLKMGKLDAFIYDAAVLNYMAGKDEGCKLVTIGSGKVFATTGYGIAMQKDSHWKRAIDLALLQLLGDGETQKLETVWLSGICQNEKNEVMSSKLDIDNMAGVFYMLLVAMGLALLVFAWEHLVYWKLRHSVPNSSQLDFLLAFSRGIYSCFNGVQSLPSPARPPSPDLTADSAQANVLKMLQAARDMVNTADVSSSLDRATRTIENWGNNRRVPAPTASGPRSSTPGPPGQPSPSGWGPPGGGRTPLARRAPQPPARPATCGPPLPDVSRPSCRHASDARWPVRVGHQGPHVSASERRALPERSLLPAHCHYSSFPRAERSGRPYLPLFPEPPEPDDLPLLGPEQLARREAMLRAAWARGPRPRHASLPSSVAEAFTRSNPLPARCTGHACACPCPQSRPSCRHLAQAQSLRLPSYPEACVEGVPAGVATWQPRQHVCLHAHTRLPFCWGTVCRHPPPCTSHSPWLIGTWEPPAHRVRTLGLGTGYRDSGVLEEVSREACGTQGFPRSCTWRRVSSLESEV
Method: as §1, §2

[4] = molecular target: T4, recombinant rat GluN1/GluN2D (Rattus norvegicus, UniProt Q62645); assay: Two-electrode voltage-clamp (TEVC) recordings in Xenopus laevis oocytes, GluN1/GluN2D; settings: for I30 μM/Icontrol (mean ± SEM, %) GluN2D: 30 μM compound, Tables 5-7
T4 construct: expressed in transfected cells; host or cells: Xenopus laevis oocytes (Ecocyte) injected with in vitro transcribed cRNA
T4 sequence (Q62645 28-1323, other chains not shown): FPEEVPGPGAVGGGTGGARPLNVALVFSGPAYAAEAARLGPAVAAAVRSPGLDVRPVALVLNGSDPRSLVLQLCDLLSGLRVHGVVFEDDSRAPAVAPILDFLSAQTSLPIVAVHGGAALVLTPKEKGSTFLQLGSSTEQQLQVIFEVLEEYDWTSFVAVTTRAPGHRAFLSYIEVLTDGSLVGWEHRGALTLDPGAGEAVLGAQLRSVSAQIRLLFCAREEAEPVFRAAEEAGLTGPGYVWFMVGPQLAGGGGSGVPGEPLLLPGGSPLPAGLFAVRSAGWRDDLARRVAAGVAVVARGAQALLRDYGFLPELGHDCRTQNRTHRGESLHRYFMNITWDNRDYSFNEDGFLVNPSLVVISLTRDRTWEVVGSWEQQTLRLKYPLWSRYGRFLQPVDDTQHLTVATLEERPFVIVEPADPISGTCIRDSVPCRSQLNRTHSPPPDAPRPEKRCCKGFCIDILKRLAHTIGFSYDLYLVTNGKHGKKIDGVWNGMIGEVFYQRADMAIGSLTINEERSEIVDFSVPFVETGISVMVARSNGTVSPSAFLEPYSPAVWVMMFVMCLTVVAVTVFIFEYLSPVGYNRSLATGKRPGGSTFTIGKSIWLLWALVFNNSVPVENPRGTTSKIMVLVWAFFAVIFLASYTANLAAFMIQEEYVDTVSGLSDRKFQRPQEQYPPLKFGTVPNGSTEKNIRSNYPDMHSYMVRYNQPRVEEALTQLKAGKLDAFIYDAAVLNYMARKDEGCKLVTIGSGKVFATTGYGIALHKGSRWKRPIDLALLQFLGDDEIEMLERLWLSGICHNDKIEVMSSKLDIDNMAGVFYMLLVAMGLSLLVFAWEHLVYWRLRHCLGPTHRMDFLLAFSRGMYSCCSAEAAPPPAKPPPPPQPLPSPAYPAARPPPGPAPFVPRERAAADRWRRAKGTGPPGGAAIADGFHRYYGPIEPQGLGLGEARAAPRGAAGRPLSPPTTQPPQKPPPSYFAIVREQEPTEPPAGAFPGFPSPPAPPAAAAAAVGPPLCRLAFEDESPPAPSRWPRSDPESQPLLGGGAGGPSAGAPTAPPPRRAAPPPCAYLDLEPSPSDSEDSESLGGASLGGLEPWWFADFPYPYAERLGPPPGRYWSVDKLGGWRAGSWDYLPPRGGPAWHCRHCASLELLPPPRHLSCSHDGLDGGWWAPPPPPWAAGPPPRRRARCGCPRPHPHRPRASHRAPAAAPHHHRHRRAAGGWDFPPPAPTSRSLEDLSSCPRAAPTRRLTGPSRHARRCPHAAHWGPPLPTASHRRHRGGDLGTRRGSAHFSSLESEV
Method: as §1, §2

[5] = molecular target: T5, recombinant rat GluN1/GluN2C (Rattus norvegicus, UniProt P35439+Q00961); assay: Two-electrode voltage-clamp (TEVC) recordings in Xenopus laevis oocytes, GluN1/GluN2C
T5 construct: expressed in transfected cells; host or cells: Xenopus laevis oocytes (Ecocyte) injected with in vitro transcribed cRNA
T5 sequence (Q00961 20-1237, other chains not shown): as the sequence (Q00961 20-1237, other chains not shown) above
Method: as §1, §2

[6] = molecular target: T6, recombinant rat GluN1/GluN2D (Rattus norvegicus, UniProt P35439+Q62645); assay: Two-electrode voltage-clamp (TEVC) recordings in Xenopus laevis oocytes, GluN1/GluN2D
T6 construct: expressed in transfected cells; host or cells: Xenopus laevis oocytes (Ecocyte) injected with in vitro transcribed cRNA
T6 sequence (Q62645 28-1323, other chains not shown): as the sequence (Q62645 28-1323, other chains not shown) above
Method: as §1, §2

[7] = fitted when potentiation at 30 μM exceeded 120%, Tables 3, 5-7, read-out: EC50 (max.) (μM %) GluN2B: fitted EC50
[8] = maximum potentiation, response without modulator = 100%, read-out: GluN2B EC50 (μM)/Max %: Max %
[9] = percentage of the initial glutamate (100 μM) and glycine (30 μM) current, read-out: EC50 (max.) (μM %) GluN2B: fitted maximum response
[10] = fitted when potentiation at 30 μM exceeded 120%, Tables 3, 5-7, read-out: EC50 (max.) (μM %) GluN2C: fitted EC50
[11] = maximum potentiation, response without modulator = 100%, read-out: GluN2C EC50 (μM)/Max %: Max %
[12] = percentage of the initial glutamate (100 μM) and glycine (30 μM) current, read-out: EC50 (max.) (μM %) GluN2C: fitted maximum response
[13] = maximum potentiation, response without modulator = 100%, read-out: GluN2D EC50 (μM)/Max %: Max %
[14] = Tables 11-13, read-out: EC50 & Max Effect: 2D
[15] = Tables 11-13, read-out: EC50 & Max Effect: 2D Max (%)
[16] = Tables 11-13, read-out: EC50 & Max Effect: 2C
[17] = Tables 11-13, read-out: EC50 & Max Effect: 2C Max (%)
[18] = untitled tables after drawing 25 and drawing 36, read-out: EC50 (μM) GluN2D
[19] = untitled tables after drawing 25 and drawing 36, read-out: EC50 (μM) GluN2C
[20] = untitled tables after drawing 25 and drawing 36, read-out: EC50 (μM) GluN2B
[21] = read-out: EC50 & Max Effect: 2D Max (%)
[22] = read-out: EC50 & Max Effect: 2C Max (%)

CCOc1ccc(OCC2c3ccc(OC(C)C)cc3CCN2C(=O)c2cccc(F)c2)cc1 (centres unmarked) [1180-87]
EC50 [1, 7]: 2.8 µM
Emax [1, 8]: 152%
Emax [1, 9]: 152%
I30 μM/Icontrol (mean ± SEM, %) GluN2B [2]: 151%
I30 μM/Icontrol (mean ± SEM, %) GluN2C [3]: 103%

CCOc1ccc(OCC2c3ccc(OC(C)C)cc3CCN2C(=O)c2ccc(Cl)c(Cl)c2)cc1 (centres unmarked) [1180-103]
EC50 [1, 7]: 1.4 µM
Emax [1, 8]: 130%
Emax [1, 9]: 134%
I30 μM/Icontrol (mean ± SEM, %) GluN2B [2]: 120%
I30 μM/Icontrol (mean ± SEM, %) GluN2D [4]: 101%
EC50 [5, 10]: 0.65 µM
Emax [5, 11]: 137%
Emax [5, 12]: 139%
I30 μM/Icontrol (mean ± SEM, %) GluN2C [3]: 134%

COc1ccc(OCC2c3ccc(N(C)C)cc3CCN2C(=O)c2cccc(Cl)c2)cc1 (centres unmarked) [1180-104]
Emax [1, 8]: 132%
Emax [6, 13]: 349%
Emax [5, 11]: 315%

CCOc1ccc(OCC2c3ccc(OC4CCCC4)cc3CCN2C(=O)c2cccc(F)c2)cc1 (centres unmarked) [1180-112]
EC50 [6, 14]: 4.2 µM
Emax [6, 15]: 157%
EC50 [5, 16]: 4.1 µM
Emax [5, 17]: 170%

CCOc1ccc(OCC2c3ccc(OC(C)C)cc3CCN2C(=O)c2ccc(F)c(Cl)c2)cc1 (centres unmarked) [1180-144]
Emax [1, 8]: 182%
Emax [6, 13]: 135%
Emax [5, 11]: 175%

CCOc1ccc(OCC2c3ccc(OC(C)C)cc3CCN2C(=S)c2cccc(Cl)c2)cc1 (centres unmarked) [1180-149]
Emax [1, 8]: 184%
Emax [6, 13]: 145%
Emax [5, 11]: 179%

CCOc1ccc(OCC2c3ccc(OC(C)C)cc3CCN2C(=S)c2cccc(Br)c2)cc1 (centres unmarked) [1180-156]
Emax [1, 8]: 187%
Emax [6, 13]: 130%
Emax [5, 11]: 161%

COc1ccc(OCC2c3ccc(N(C)C)cc3CCN2C(=S)c2cccc(Cl)c2)cc1 (centres unmarked) [1180-167]
Emax [6, 13]: 127%
Emax [5, 11]: 134%

CCOc1ccc(OCC2c3ccc(OC(C)C)cc3CCN2C(=S)Nc2cccc(Cl)c2)cc1 (centres unmarked) [1180-210]
Emax [6, 13]: 174%
Emax [5, 11]: 173%

COc1ccc(OCC2c3ccc(OC)cc3CCN2C(=O)c2ccc(Cl)o2)cc1 (centres unmarked) [1180-234]
GluN2B response % at 30 µM [2]: 107% at 30
EC50 [6, 18]: 5.5 µM
EC50 [5, 19]: 2.6 µM

COc1ccc(OCC2c3ccc(OC)cc3CCN2C(=O)c2ccc(Cl)s2)cc1 (centres unmarked) [1180-239]
EC50 [1, 20]: 1.6 µM
EC50 [6, 18]: 1 µM
EC50 [5, 19]: 0.9 µM

COc1ccc(OCC2c3ccc(OC)cc3CCN2C(=O)CCCC(F)(F)F)cc1 (centres unmarked) [1180-252]
GluN2B response % at 30 µM [2]: 96% at 30
EC50 [6, 18]: 14 µM
EC50 [5, 19]: 11 µM

CC(C)Oc1ccc(OCC2c3ccc(OC(C)C)cc3CCN2C(=S)c2cccc(Cl)c2)cc1 (centres unmarked) [1180-265]
EC50 [1, 20]: 0.6 µM
EC50 [6, 18]: 0.4 µM
EC50 [5, 19]: 0.3 µM

CCOc1ccc(OC[C@H]2c3ccc(OC(C)C)cc3CCN2C(=S)c2cccc(F)c2)cc1 [(R)-(+)-1180-154]
I30 μM/Icontrol (mean ± SEM, %) GluN2B [2]: 95%
I30 μM/Icontrol (mean ± SEM, %) GluN2D [4]: 74%
I30 μM/Icontrol (mean ± SEM, %) GluN2C [3]: 58%

COc1ccc(OC[C@H]2c3ccc(OC(C)C)cc3CCN2C(=S)c2cccc(Cl)c2)cc1 [(R)-(+)-1180-163]
I10 μM/Icontrol (mean ± SEM, %) GluN2B ([2]; 10 μM compound, Table 3): 121%
EC50 ([6]; fitted when potentiation at 30 μM exceeded 120%, Tables 3, 5-7, read-out: EC50 (max.) (μM %) GluN2D: fitted EC50): 2.3 µM
Emax ([6]; percentage of the initial glutamate (100 μM) and glycine (30 μM) current, read-out: EC50 (max.) (μM %) GluN2D: fitted maximum response): 255%
I10 μM/Icontrol (mean ± SEM, %) GluN2D ([4]; 10 μM compound, Table 3): 215%
Emax [5, 12]: 252%
I10 μM/Icontrol (mean ± SEM, %) GluN2C ([3]; 10 μM compound, Table 3): 252%

CCOc1ccc(OC[C@@H]2c3ccc(OC(C)C)cc3CCN2C(=O)c2cccc(F)c2)cc1 [(S)-(−)-1180-87]
EC50 [1, 7]: 6.7 µM
Emax [1, 9]: 206%
I30 μM/Icontrol (mean ± SEM, %) GluN2B [2]: 195%
I30 μM/Icontrol (mean ± SEM, %) GluN2D [4]: 119%
EC50 [5, 10]: 7.6 µM
Emax [5, 12]: 132%
I30 μM/Icontrol (mean ± SEM, %) GluN2C [3]: 131%

CCOc1ccc(OC[C@@H]2c3ccc(OC(C)C)cc3CCN2C(=O)c2cccc(C(F)(F)F)c2)cc1 [(S)-(−)-1180-92]
EC50 [1, 7]: 1.9 µM
Emax [1, 9]: 210%
I30 μM/Icontrol (mean ± SEM, %) GluN2B [2]: 207%
I30 μM/Icontrol (mean ± SEM, %) GluN2D [4]: 116%
EC50 [5, 10]: 1.2 µM
Emax [5, 12]: 141%
I30 μM/Icontrol (mean ± SEM, %) GluN2C [3]: 132%

CCOc1ccc(OC[C@@H]2c3ccc(OC(C)C)cc3CCN2C(=O)c2ccc(Cl)c(Cl)c2)cc1 [(S)-(−)-1180-103]
EC50 [1, 7]: 0.94 µM
Emax [1, 9]: 163%
I30 μM/Icontrol (mean ± SEM, %) GluN2B [2]: 153%
I30 μM/Icontrol (mean ± SEM, %) GluN2D [4]: 102%
GluN2D potentiation at 3 μM ([4]; at 3 μM, footnote c of Table 7): exceeded 120%
I30 μM/Icontrol (mean ± SEM, %) GluN2C [3]: 114%
GluN2C potentiation at 3 μM ([3]; at 3 μM, footnote c of Table 7): exceeded 120%

CCOc1ccc(OC[C@@H]2c3ccc(OC(C)C)cc3CCN2C(=S)c2cccc(C(F)(F)F)c2)cc1 [(S)-(−)-1180-168]
I30 μM/Icontrol (mean ± SEM, %) GluN2B [2]: 95%
I30 μM/Icontrol (mean ± SEM, %) GluN2D [4]: 87%
I30 μM/Icontrol (mean ± SEM, %) GluN2C [3]: 87%

COc1ccc(OC[C@@H]2c3cc(OC)c(OC)cc3CCN2C(=O)c2cccc(Cl)c2)cc1 [S-1390]
Emax [6, 21]: 299%
EC50 ([5]; EC50 & Max Effect: 2C (μM)): 6.1 µM
Emax [5, 22]: 275%

COc1ccc(OCC2c3cc(C)c(C)cc3CCN2C(=O)c2cccc(Br)c2)cc1 (centres unmarked) [drawing 33 R1=Br R2=H R3=H R4=Me R5=Me]
Emax [6, 15]: 211%
Emax [5, 17]: 197%

COc1ccc(OCC2c3ccc(N(C)C)cc3CCN2C(=O)c2cccc(Br)c2)cc1 (centres unmarked) [drawing 33 R1=Br R2=H R3=H R4=NMe2 R5=H]
Emax [6, 15]: 327%
Emax [5, 17]: 293%

COc1ccc(OCC2c3ccc(OCc4ccccc4)cc3CCN2C(=O)c2cccc(Br)c2)cc1 (centres unmarked) [drawing 33 R1=Br R2=H R3=H R4=OBn R5=H]
EC50 ([6]; EC50 & Max Effect: 2D (μM)): 0.27 µM
Emax [6, 21]: 219%
EC50 ([5]; EC50 & Max Effect: 2C (μM)): 0.31 µM
Emax [5, 22]: 257%

COc1ccc(OCC2c3ccc(SCc4ccccc4)cc3CCN2C(=O)c2cccc(Cl)c2)cc1 (centres unmarked) [drawing 33 R1=Cl R2=H R3=H R4=SBn R5=H]
EC50 [6, 14]: 0.43 µM
Emax [6, 15]: 213%
EC50 [5, 16]: 0.4 µM
Emax [5, 17]: 226%

COc1ccc(OCC2c3cc(OC)c(OC)cc3CCN2C(=O)c2ccccc2)cc1 (centres unmarked) [drawing 33 R1=H R2=H R3=H R4=OMe R5=OMe]
EC50 [6, 14]: 11.4 µM
Emax [6, 15]: 156%
EC50 [5, 16]: 12.3 µM
Emax [5, 17]: 450%
